Test results from patent US20050203187A1, “Formulations useful for the treatment of varicella zoster virus infections and methods for the use thereof” (priority 1998, published 2005).
Values after ≈ are worked out from the molar mass of the structure shown. “Also recorded” adds a separate entry of the source. Like-named read-outs stand apart in the source and are kept apart here.

Experiments:
varicella zoster virus [1] = test: Shingles episode in a person; settings: oral 400 mg 2×/day
Varicella Zoster Virus [2] = test: Varicella zoster virus replication in cultures of human foreskin fibroblast cells; type: cell-based; settings: for EC50: Human alphaherpesvirus 3, read-out: EC50 effective concentration required to inhibit viral replication by 50%; for EC50 / EC90: VZV in HFF cells; for EC90: Human alphaherpesvirus 3, read-out: EC90 effective concentration required to inhibit viral replication by 90%; for replication of varicella zoster virus in human cell cultures: statement in words
Method: (§1) Human foreskin fibroblast (HFF) cells obtained from newborns were prepared and suspended in minimum essential medium (MEM) and supplemented with 10% fetal bovine serum (FBS). […] Drug concentrations were diluted six times from 100 μg/ml down to 0.03 μg/ml in MEM/FBS solution. A selective index of 10 is considered significant.

[3] = Cytotoxicity in human foreskin fibroblast cells; type: cell-based
Method: Human foreskin fibroblast (HFF) cells obtained from newborns were prepared and suspended in minimum essential medium (MEM) and supplemented with 10% fetal bovine serum (FBS). Freshly processed cells were incubated for 24 hours at 37° C. in well tissue culture plates in a CO2 incubator (E. R. Kern, J. Infect. Dis., 128:290 (1973)). Assays for cytotoxicity and varicella zoster virus replication were carried out in these culture wells following reported procedures (see, for example, R. J. Ryback and E. R. Kern et al, Antimicrobial Agents and Chemotherapy, 44:1506 (2000); Y. L. Qiu et al, J. Med. Chem., 41: 10 (1998); and Y. L. Qiu et al, J. Med. Chem., 41: 5257 (1998)). Drug concentrations were diluted six times from 100 μg/ml down to 0.03 μg/ml in MEM/FBS solution. A selective index of 10 is considered significant.

herpes and other viruses = settings: cited from earlier work
herpes simplex virus-1 = settings: rabbit kidney cell cultures; cited from earlier work
Varicella zoster virus [4] = test: Varicella zoster virus replication in cultures of human foreskin fibroblast cells; type: cell-based; settings: human; VZV in HFF cells; read-out: SI selective index of CC50/EC50
Method: as §1

[5] = Topical relief of muscle and joint pain in persons; type: in vivo, human; settings: ibuprofen 5%, ketoprofen 3% (2-5%) in jojoba alcohol with 1% alpha-d-tocopherol, several drops
Method: Some persons using these medications experience gastrointestinal side effects.
(§2) The oil was tested on several persons for relief of minor muscle and joint pains.
(§3) The oil was tested topically on several persons for relief of minor muscle and joint pains.

herpes labialis (HSV-1) = settings: 10% suspended in aqueous system with non-ionic surfactant and carrier; cited from earlier work
[6] = test system: simian immunodeficiency virus (SIV); settings: 12% cream, intravaginal application before exposure, six monkeys tested; cited from earlier work
[7] = ibuprofen 5%, ketoprofen 3%, lactic acid 5%, testosterone 1% in jojoba alcohol; malic acid 0.8%, citric acid 0.5% lotion; Viracol A Plus one drop
Method: Testosterone is a primary male hormone produced in the testes with effects on muscles, bones and sexual function. Testosterone replacement therapy for men with a deficiency, sometimes referred to as hypoganadism, is currently available in topical patches. […] This transdermal delivery technology can also be applied to corresponding estrogenic steroids such as estradiol for women.
as §2, §3
Malic Acid also known as hydroxysuccinic acid, occurs naturally in apples and is sometimes referred to as apple acid. It is used as a general purpose acidulent in food products.
For the next 8 days […] spread 1-2 drops twice each day on the 2.5 inch diameter outbreak of small blisters on […] arm, and 4-6 drops twice each day on the blisters at […] waist.

## Nc1nc2c(ncn2COCCO)c(=O)[nH]1 [Acyclovir, reference compound]
Varicella zoster virus [1]
  side effects: diarrhea and headache
Varicella zoster virus [1]; after several days
  change in shingles: no change
Varicella Zoster Virus [2]
  EC50: 0.04 mg/L (≈ 0.178 µM)
  EC90: 0.09 mg/L (≈ 0.4 µM)
[3]; stationary HFF cells
  CC50: > 100 mg/L

## O=C(O)CC(O)(CC(=O)O)C(=O)O [Citric Acid]
Herpes and other viruses
  viral replication inhibition activity in cell cultures: viral replication inhibition activity

## O=C(O)/C=C/C(=O)O [Fumaric acid, trans 2-butenedioic acid]
Herpes simplex virus-1
  herpes simplex virus-1 replication: inhibitors
Herpes and other viruses
  viral replication inhibition activity in cell cultures: viral replication inhibition
Varicella zoster virus [4]
  selectivity ratio: > 666
Varicella Zoster Virus [2]
  EC50: 0.15 mg/L (≈ 1.29 µM)
  EC90: 0.6 mg/L (≈ 5.17 µM)
  replication of varicella zoster virus in human cell cultures: inhibit replication
[3]
  CC50: > 100 mg/L

## O=C(O)CO [Glycolic Acid]
Herpes and other viruses
  viral replication inhibition activity in cell cultures: viral replication inhibition activity

## CC(C)Cc1ccc(C(C)C(=O)O)cc1 (stereo not drawn) [Ibuprofen, alpha-methyl-4(2-methylpropyl)benzeneacetic acid]
[5]
  pain relief on topical application: successfully relieved pain; also recorded: relieving pain

## CC(C(=O)O)c1cccc(C(=O)c2ccccc2)c1 (stereo not drawn) [Ketoprofen, 3-benzoyl-alpha-methylbenzeneacetic acid]
[5]
  pain relief on topical application: relieving pain
[5]; listed as ketoprofen
  pain relief on topical application: successfully relieved pain

## CC(O)C(=O)O (stereo not drawn) [Lactic Acid]
Herpes and other viruses
  viral replication inhibition activity in cell cultures: viral replication inhibition activity

## O=C(O)CC(O)C(=O)O (stereo not drawn) [Malic Acid, hydroxysuccinic acid]
Herpes and other viruses
  viral replication inhibition activity in cell cultures: viral replication inhibition activity

## O=C(O)CC(=O)O [Malonic acid, propanedioic acid]
Herpes simplex virus-1
  herpes simplex virus-1 replication: inhibitors
Varicella zoster virus [4]
  selectivity ratio: > 3330
Varicella Zoster Virus [2]
  EC50: < 0.03 mg/L
  EC90: < 0.03 mg/L
  replication of varicella zoster virus in human cell cultures: inhibit replication
[3]
  CC50: > 100 mg/L

## CC(=O)C(=O)O [Pyruvic acid, Pyruvic Acid]
Herpes and other viruses
  viral replication inhibition activity in cell cultures: viral replication inhibition activity

## O=C(O)CCC(=O)O [Succinic acid, Succinic Acid]
Herpes and other viruses
  viral replication inhibition activity in cell cultures: viral replication inhibition activity

## CCCCCCCCCCCCCCCCCCCCCCO [n-docosanol, n-Docosanol]
Herpes labialis (HSV-1)
  mean healing time of lesions: shortened
[6]
  monkeys in which transmission was prevented: five

## C[C@]12CC[C@H]3[C@@H](CCC4=CC(=O)CC[C@@]43C)[C@@H]1CC[C@@H]2O [testosterone, Testosterone]
[7]
  absorption into human skin, residue, irritation: leaves no residue
